Measured values from patent US20250161319A1, “USE OF HPK1 INHIBITOR IN TREATMENT OF INTERFERON-RELATED DISEASES” (priority 2022, published 2025).

Tests used:
HPK1 [1] = target: T1, HPK1 (Homo sapiens (Human), UniProt Q92918); assay: Inhibition of HPK1 kinase activity in vitro (ADP-Glo), compounds of Formula I-1; assay type: biochemical; conditions: MBP substrate
Protocol: The starting concentration for all tested compounds was 10 μM, and diluted in three-fold concentration gradient for a total of 10 concentration points in duplicate.
Before the experiment, 50 μM DTT and the enzymatic reaction system buffer were prepared.
The compound dilution was transferred into 384-well plate by using a pipette, afterwards, the 384-well plate was sealed and centrifuged at 1000 g for 1 min. 2-fold concentration of HPK1 solution was prepared in the kinase buffer, and then 2.5 μL of the prepared 2-fold concentration of HPK1 solution was added into the 384 wells, centrifuged at 1000 g for 30 s, and incubated for 10 min at room temperature. A mixture of 2-fold concentration of MBP and ATP was prepare in the kinase buffer, and […] of prepared mixture of 2-fold concentration of MBP and ATP was added into the above reaction system for the reaction, centrifuged at 1000 g for 30 s, and then incubated at room temperature for 1 h, 5 μL of ADP-Glo reagent was added into the reaction system, and incubated at room temperature for 40 min. 10 μL of kinase detection reagent was added and incubated at room temperature for 40 min.
In the above formula, cmpd refers to the tested compound, PC refers to the positive control, and VC refers to the negative control.

HPK1 [2] = target: T1, HPK1; assay: In vitro enzyme activity, ADP-Glo method (Example 3); assay type: biochemical; conditions: recombinant protein, read-out: HPK1 inhibiting activity level (IC50)
Protocol: (§1) ADP-Glo™ Kinase Assay is a luminescent ADP assay that provides a versatile, homogeneous, high-throughput screening method to measure kinase activity by quantifying the amount of ADP produced during the kinase reaction. The assay was performed in two steps; first, after the kinase reaction, an equal volume of ADP-Glo™ Reagent was added to quench the kinase reaction and consume the remaining ATP. Second, the Kinase Assay Reagent was added to concurrently convert ADP to ATP and allow measurement of newly synthesized ATP using the luciferase/luciferin reaction. The light produced was measured using a photometer. Luminescence can be correlated with ADP concentration by using an ATP to ADP conversion curve. […] Meanwhile, better selectivity was shown on kinases with closer homology such as GCK/TNIK/PDK1.

PDK1 [3] = target: T2, PDK1 (Homo sapiens (Human), UniProt O15530); assay: as above; assay type: biochemical; conditions: recombinant protein, read-out: PDK1 inhibiting activity level (IC50)
T2 sequence (O15530 whole entry): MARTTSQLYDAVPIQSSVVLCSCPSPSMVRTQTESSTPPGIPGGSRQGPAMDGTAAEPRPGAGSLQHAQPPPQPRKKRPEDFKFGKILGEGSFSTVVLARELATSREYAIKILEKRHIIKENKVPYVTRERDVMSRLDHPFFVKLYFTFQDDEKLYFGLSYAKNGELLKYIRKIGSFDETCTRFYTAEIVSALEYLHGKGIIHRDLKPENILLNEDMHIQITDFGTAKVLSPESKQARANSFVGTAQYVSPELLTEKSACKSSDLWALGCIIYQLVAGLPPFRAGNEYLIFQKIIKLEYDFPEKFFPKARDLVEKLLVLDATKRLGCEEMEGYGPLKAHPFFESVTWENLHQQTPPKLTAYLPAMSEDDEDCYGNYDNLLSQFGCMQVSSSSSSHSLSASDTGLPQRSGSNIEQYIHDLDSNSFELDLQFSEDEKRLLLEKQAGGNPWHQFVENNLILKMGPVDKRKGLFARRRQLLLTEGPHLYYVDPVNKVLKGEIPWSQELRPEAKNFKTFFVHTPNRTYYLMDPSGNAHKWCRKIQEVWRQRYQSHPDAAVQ
Protocol: as §1

TNIK [4] = target: T3, TNIK (Homo sapiens (Human), UniProt Q9UKE5); assay: as above; assay type: biochemical; conditions: recombinant protein, read-out: TNIK inhibiting activity level (IC50)
Protocol: as §1
Target sequence in this assay (Q9UKE5 whole entry, species assumed): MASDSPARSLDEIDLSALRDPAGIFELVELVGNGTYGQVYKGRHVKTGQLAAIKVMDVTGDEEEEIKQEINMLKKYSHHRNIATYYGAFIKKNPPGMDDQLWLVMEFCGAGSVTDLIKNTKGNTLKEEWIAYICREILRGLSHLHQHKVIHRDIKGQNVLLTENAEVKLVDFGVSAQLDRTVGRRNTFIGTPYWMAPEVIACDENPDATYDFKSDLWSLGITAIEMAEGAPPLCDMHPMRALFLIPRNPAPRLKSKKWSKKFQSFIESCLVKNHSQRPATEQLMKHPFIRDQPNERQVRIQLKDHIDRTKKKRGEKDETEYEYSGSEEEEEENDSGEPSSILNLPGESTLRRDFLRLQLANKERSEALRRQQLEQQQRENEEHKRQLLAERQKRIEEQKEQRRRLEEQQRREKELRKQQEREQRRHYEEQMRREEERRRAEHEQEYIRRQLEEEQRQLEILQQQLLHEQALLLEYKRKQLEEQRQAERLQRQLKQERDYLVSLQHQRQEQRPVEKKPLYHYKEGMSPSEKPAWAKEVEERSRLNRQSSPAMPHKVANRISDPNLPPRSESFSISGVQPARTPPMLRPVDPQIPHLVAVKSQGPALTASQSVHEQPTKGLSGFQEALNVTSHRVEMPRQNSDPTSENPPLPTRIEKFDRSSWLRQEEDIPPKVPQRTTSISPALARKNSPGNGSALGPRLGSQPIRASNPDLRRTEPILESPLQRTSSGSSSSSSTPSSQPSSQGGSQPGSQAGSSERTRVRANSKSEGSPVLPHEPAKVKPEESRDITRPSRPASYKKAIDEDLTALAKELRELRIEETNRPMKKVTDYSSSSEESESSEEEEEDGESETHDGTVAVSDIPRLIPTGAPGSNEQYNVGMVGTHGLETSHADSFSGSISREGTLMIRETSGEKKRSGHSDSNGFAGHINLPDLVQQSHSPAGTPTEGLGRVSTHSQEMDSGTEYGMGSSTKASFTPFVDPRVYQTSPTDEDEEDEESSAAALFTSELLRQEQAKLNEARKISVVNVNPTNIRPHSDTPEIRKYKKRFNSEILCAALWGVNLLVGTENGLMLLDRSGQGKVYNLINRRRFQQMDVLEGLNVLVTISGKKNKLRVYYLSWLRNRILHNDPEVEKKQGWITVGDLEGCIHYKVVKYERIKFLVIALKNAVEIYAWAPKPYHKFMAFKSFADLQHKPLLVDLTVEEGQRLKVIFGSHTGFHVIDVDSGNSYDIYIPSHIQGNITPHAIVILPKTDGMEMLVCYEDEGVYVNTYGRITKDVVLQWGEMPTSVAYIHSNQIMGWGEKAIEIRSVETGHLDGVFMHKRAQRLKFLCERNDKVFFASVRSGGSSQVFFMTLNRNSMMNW

GCK [5] = target: T4, GCK (Homo sapiens (Human), UniProt Q12851); assay: as above; assay type: biochemical; conditions: recombinant protein, read-out: GCK inhibiting activity level (IC50)
T4 sequence (Q12851 whole entry): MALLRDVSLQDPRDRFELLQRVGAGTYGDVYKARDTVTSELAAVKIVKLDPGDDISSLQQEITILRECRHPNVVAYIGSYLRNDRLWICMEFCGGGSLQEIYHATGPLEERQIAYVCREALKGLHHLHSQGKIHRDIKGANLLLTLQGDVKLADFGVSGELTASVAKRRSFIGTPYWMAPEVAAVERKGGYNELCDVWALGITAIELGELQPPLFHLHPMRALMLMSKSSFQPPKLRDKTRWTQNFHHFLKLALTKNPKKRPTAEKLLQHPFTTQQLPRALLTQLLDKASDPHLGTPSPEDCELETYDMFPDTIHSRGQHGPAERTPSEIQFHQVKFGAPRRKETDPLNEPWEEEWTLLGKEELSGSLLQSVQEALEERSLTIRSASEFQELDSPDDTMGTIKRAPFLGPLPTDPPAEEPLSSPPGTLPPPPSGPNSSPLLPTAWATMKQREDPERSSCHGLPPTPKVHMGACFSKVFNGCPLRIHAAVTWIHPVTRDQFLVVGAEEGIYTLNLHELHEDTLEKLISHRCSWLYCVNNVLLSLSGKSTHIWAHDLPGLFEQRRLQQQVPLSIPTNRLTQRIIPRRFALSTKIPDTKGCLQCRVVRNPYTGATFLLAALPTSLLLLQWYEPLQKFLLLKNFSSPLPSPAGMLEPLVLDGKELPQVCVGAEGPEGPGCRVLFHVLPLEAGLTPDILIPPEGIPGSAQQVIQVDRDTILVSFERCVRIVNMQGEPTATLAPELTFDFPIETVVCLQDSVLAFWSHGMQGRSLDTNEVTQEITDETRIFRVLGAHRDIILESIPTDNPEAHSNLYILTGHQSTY
Protocol: as §1

[6] = Oral maximum tolerated dose / oral acute toxicity test in mice; assay type: in vivo; conditions: for Death, Female mice / Death, Male mice: P.O.; for MTD: mouse, in vivo, po, mice, single dose
Text: The inventors tested representative compounds for oral maximum tolerated dose in mice.

[7] = test system: Feline Infectious Peritonitis; assay: Animal clinical trial in cats with Feline Infectious Peritonitis; assay type: in vivo; conditions: 20 days; for ALB/GLB, After treatment / Feline serum amyloid A (fSAA, mg/L), After treatment: 1.5 mg/kg twice a day; for body weight (kg), After treatment: injection 1.5 mg/kg twice a day
Text: Therefore, the inventors hypothesized that HPK1 inhibitors might have therapeutic effects on Feline Infectious Peritonitis. To validate this hypothesis, the inventors conducted an animal clinical trial. Three animals were included in the experiment, all of them suffered from Feline Infectious Peritonitis, aged between 5-12 months, one was female and the other two were male (Table 4).

TNIK [8] = target: T3, TNIK; assay: Inhibition of TNIK kinase activity in vitro (ADP-Glo); assay type: biochemical; conditions: ADP-Glo; read-out: Activity/IC50, nM TNIK
Protocol: (§2) The starting concentration for all tested compounds was 10 μM, and diluted in three-fold concentration gradient for a total of 10 concentration points in duplicate. […] A mixture of 2-fold concentration of MBP and ATP was prepare in the kinase buffer, and 2.5 μL of prepared mixture of 2-fold concentration of MBP and ATP was added into the above reaction system for the reaction, centrifuged at 1000 g for 30 s, and then incubated at room temperature for 1 h. 5 μL of ADP-Glo reagent was added into the reaction system, and incubated at room temperature for 40 min. 10 μL of kinase detection reagent was added and incubated at room temperature for 40 min.
Target sequence in this assay (Q9UKE5 whole entry): as the sequence (Q9UKE5 whole entry, species assumed) above

HPK1 [9] = target: T1, HPK1; assay: Inhibition of HPK1 kinase activity in vitro (ADP-Glo), compounds of Formula I-2; assay type: biochemical; conditions: ADP-Glo; read-out: Activity/IC50, nM HPK1
Protocol: The starting concentration for all tested compounds was 10 μM, and diluted in three-fold concentration gradient for a total of 10 concentration points in duplicate. Before the experiment, 50 μM DTT and the enzymatic reaction system buffer were prepared. […] A mixture of 2-fold concentration of MBP and ATP was prepare in the kinase buffer, and 2.5 μL of prepared mixture of 2-fold concentration of MBP and ATP was added into the above reaction system for the reaction, centrifuged at 1000 g for 30 s, and then incubated at room temperature for 1 h. 5 μL of ADP-Glo reagent was added into the reaction system, and incubated at room temperature for 40 min. 10 μL of kinase detection reagent was added and incubated at room temperature for 40 min. […] In the above formula, empd refers to the tested compound, PC refers to the positive control, and VC refers to the negative control.

PDK1 [10] = target: T2, PDK1; assay: Inhibition of PDK1 kinase activity in vitro (ADP-Glo); assay type: biochemical; conditions: ADP-Glo; read-out: Activity/IC50, nM PDK1
Protocol: as §2

GCK [11] = target: T4, GCK; assay: Inhibition of GCK kinase activity in vitro (ADP-Glo); assay type: biochemical; conditions: ADP-Glo; read-out: Activity/IC50, nM GCK
Protocol: as §2

T1 sequence (Q92918 whole entry): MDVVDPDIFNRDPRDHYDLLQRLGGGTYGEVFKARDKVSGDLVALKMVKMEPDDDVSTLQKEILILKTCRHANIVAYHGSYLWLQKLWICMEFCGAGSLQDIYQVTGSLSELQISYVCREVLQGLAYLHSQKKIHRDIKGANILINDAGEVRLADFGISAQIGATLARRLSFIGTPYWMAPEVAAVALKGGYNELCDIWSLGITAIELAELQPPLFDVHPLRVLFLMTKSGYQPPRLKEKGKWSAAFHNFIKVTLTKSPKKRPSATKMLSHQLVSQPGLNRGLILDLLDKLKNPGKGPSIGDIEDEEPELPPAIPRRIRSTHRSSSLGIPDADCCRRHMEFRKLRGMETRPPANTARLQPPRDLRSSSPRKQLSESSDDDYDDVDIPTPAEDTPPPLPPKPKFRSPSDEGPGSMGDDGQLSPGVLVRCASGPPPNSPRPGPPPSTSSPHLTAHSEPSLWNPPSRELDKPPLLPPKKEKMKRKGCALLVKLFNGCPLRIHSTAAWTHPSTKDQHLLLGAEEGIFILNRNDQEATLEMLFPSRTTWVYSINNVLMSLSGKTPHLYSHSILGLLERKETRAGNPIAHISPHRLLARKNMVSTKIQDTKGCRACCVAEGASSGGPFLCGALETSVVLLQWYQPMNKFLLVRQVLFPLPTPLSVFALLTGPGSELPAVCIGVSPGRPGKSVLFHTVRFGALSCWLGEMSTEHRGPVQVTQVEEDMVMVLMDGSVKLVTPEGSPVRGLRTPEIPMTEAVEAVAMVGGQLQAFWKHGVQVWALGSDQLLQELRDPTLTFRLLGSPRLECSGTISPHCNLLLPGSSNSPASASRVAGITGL

For `CN1CCC(n2cc(Nc3ncc4cccc(OC5CCC(O)CC5)c4n3)cn2)CC1` (centres unmarked) [Example 3, 4-((2-((1-(1-methylpiperidin-4-yl)-1H-pyrazol-4-yl)amino)quinazolin-8-yl)oxo)cyclohexan-1-ol], the IC50 (HPK1 [1]) was < 50 nM.

In the case of `Cn1cccc1-c1cc2cc(NC(=O)C3C[C@@H]3F)ncc2c(N)c1F` (some centres unmarked) [Compound C6], the IC50 (HPK1 [2]) is reported as ≤ 10 nM, the IC50 (PDK1 [3]) is reported as > 1000 nM and the IC50 (TNIK [4]) is reported as 10 to 100 nM. It also gave an IC50 (GCK [5]) of 10 to 100 nM.

With `CN1CCC(n2cc(Nc3ncc4cccc(O[C@H]5CC[C@H](N)CC5)c4n3)cn2)CC1` [Compound C1] the IC50 (HPK1 [2]) was ≤ 10 nM, the IC50 (PDK1 [3]) was 100 to 1000 nM and the IC50 (TNIK [4]) was 100 to 1000 nM. For the same compound, the IC50 (GCK [5]) was 10 to 100 nM, the “Death, Female mice” value ([6]; 225 mg/kg) was 0/5 and the “Death, Male mice” value ([6]; 225 mg/kg) was 0/5. The “Death, Female mice” value ([6]; 337.5 mg/kg) was 0/5, the “Death, Male mice” value ([6]; 337.5 mg/kg) was 0/5 and the “Death, Female mice” value ([6]; 506.3 mg/kg) was 1/5. The “Death, Male mice” value ([6]; 506.3 mg/kg) was 2/5, the “Death, Female mice” value ([6]; 759.4 mg/kg) was 4/5 and the “Death, Male mice” value ([6]; 759.4 mg/kg) was 4/5. The “Death, Female mice” value ([6]; 1139.1 mg/kg) was 5/5, the “Death, Male mice” value ([6]; 1139.1 mg/kg) was 5/5 and the MTD [6] was 338 mg/kg. The “ALB/GLB, After treatment” value ([7]; Animal No. 1, before treatment 0.5) was 0.7, the “body weight (kg), After treatment” value ([7]; Animal No. 1, before treatment 1.5) was 2.15 kg and the “ALB/GLB, After treatment” value ([7]; Animal No. 2, before treatment 0.35) was 0.47. For the same compound, the “Feline serum amyloid A (fSAA, mg/L), After treatment” value ([7]; Animal No. 2, before treatment 70.47) was 15.14 mg/L, the “body weight (kg), After treatment” value ([7]; Animal No. 2, before treatment 2.31) was 2.81 kg and the “ALB/GLB, After treatment” value ([7]; Animal No. 3, before treatment 0.4) was 0.5. The “Feline serum amyloid A (fSAA, mg/L), After treatment” value ([7]; Animal No. 3, before treatment 104.88) was 17.97 mg/L and the “body weight (kg), After treatment” value ([7]; Animal No. 3, before treatment 2.9) was 3.2 kg.

For `CN1CCN(c2ccc(Nc3ncc4cccc(O[C@H]5CC[C@@H](O)CC5)c4n3)cc2)CC1` [Compound C4], the IC50 (HPK1 [2]) was 10 to 100 nM, the IC50 (PDK1 [3]) was > 1000 nM and the IC50 (TNIK [4]) was 10 to 100 nM. The IC50 (GCK [5]) was 10 to 100 nM.

With `CN1CCN(c2ccc(Nc3ncc4cccc(OC5CCC(O)C5)c4n3)cc2)CC1` (centres unmarked) [Example 6] the IC50 (HPK1 [1]) was < 100 nM.

For `CN1CCN(c2ccc(Nc3ncc4cccc(OC5CCC(O)CC5)c4n3)nc2)CC1` (centres unmarked) [Example 7, 4-((2-((5-(4-methylpiperazin-1-yl)pyridin-2-yl)amino)quinazolin-8-yl)oxo)cyclohexan-1-ol], the IC50 (HPK1 [1]) was < 300 nM.

For `COCCOc1cccc2cnc(Nc3ccc(N4CCN(C)CC4)cc3)nc12` [Example 5, 8-(2-methoxyethoxy)-N-(4-(4-methylpiperazin-1-yl)phenyl)quinazolin-2-amine], the IC50 (HPK1 [1]) was < 200 nM.

For `CN1CCC(n2cc(Nc3ncc4cccc(O[C@H]5CC[C@@H](N)CC5)c4n3)cn2)CC1` [Example 1, 8-(((1s,4s)-4-aminocyclohexyl)oxo)-N-(1-(1-methylpiperidin-4-yl)-1H-pyrazol-4-yl)quinazolin-2-amine], the IC50 (HPK1 [1]) was < 50 nM.

In the case of `CN1CCC(n2cc(Nc3ncc4cccc(O[C@H]5CC[C@@H](N)CC5)c4n3)cn2)CC1` [Compound C2], the IC50 (HPK1 [2]) is reported as ≤ 10 nM, the IC50 (PDK1 [3]) is reported as 100 to 1000 nM and the IC50 (TNIK [4]) is reported as 100 to 1000 nM. The IC50 (GCK [5]) was 10 to 100 nM.

With `CN1CCC(NC(=O)c2ccc(Nc3ncc4cccc(OC5CCC(O)CC5)c4n3)cc2)CC1` (centres unmarked) [Example 8, 4-((8-((4-hydroxycyclohexyl)oxo)quinazolin-2-yl)amino)-N-(1-methylpiperidin-4-yl)benzamide] the IC50 (HPK1 [1]) was < 50 nM.

With `CN1CCN(c2ccc(Nc3ncc4cccc(O[C@H]5CC[C@H](O)CC5)c4n3)cc2)CC1` [Compound C3] the IC50 (HPK1 [2]) was 10 to 100 nM, the IC50 (PDK1 [3]) was > 1000 nM and the IC50 (TNIK [4]) was 10 to 100 nM. The IC50 (GCK [5]) was 10 to 100 nM, the “Death, Female mice” value ([6]; 225 mg/kg) was 0/5 and the “Death, Male mice” value ([6]; 225 mg/kg) was 0/5. For the same compound, the “Death, Female mice” value ([6]; 337.5 mg/kg) was 2/5, the “Death, Male mice” value ([6]; 337.5 mg/kg) was 1/5 and the “Death, Female mice” value ([6]; 506.3 mg/kg) was 2/5. The “Death, Male mice” value ([6]; 506.3 mg/kg) was 3/5, the “Death, Female mice” value ([6]; 759.4 mg/kg) was 5/5 and the “Death, Male mice” value ([6]; 759.4 mg/kg) was 3/5. The “Death, Female mice” value ([6]; 1139.1 mg/kg) was 5/5, the “Death, Male mice” value ([6]; 1139.1 mg/kg) was 5/5 and the MTD [6] was 225 mg/kg.

With `NS(=O)(=O)c1ccc(Nc2ncc3cccc(OC4CCC(O)C4)c3n2)cc1` (centres unmarked) [Example 9, 4-((8-((3-hydroxycyclopentyl)oxo)quinazolin-2-yl)amino)benzenesulfonamide] the IC50 (HPK1 [1]) was < 300 nM.

For `Cn1cccc1-c1cc2cc(NC(=O)[C@@H]3C[C@@H]3F)ncc2c(N)c1F` [DD02001A cis, (1S,2S)—N-(8-amino-7-fluoro-6-(1-methyl-1H-pyrrole-2-yl)isoquinolin-3-yl)-2-fluorocyclopropane-1-carboxamide], the IC50 (TNIK [8]) was > 10 nM, the IC50 (HPK1 [9]) was < 10 nM and the IC50 (PDK1 [10]) was > 7000 nM. For the same compound, the IC50 (GCK [11]) was > 10 nM.

In the case of “4-((2-((4-((2-(dimethylamino)ethyl)(methyl)amino)phenyl)amino)quinazolin-8-yl)oxo)cyclohexan-1-ol [Example 2]”, the IC50 (HPK1 [1]) is reported as < 50 nM.

In the case of `Cn1cccc1-c1cc2cc(NC(=O)C3C[C@H]3F)ncc2c(N)c1F` (some centres unmarked) [Compound C5], the IC50 (HPK1 [2]) is reported as ≤ 10 nM, the IC50 (PDK1 [3]) is reported as > 1000 nM and the IC50 (TNIK [4]) is reported as 10 to 100 nM. The IC50 (GCK [5]) was ≤ 10 nM.

In the case of `CN1CCN(c2ccc(Nc3ncc4cccc(OC5CCC(O)CC5)c4n3)cc2)CC1` (centres unmarked) [Example 4], the IC50 (HPK1 [1]) is reported as < 50 nM.

For `NS(=O)(=O)c1cccc(Nc2ncc3cccc(OC4CCC(O)CC4)c3n2)c1` (centres unmarked) [Example 10, 3-((8-((4-hydroxycyclohexyl)oxo)quinazolin-2-yl)amino)benzenesulfonamide], the IC50 (HPK1 [1]) was > 300 nM.
